Assay results taken from patent US20170198006A1, “PRMT5 INHIBITORS AND USES THEREOF” (Epizyme, Inc., priority 2014, published 2017).
Read-outs that look alike come from different tables or passages of the source.

How the values were obtained:
[1] = system: symmetric di-methyl arginine in Z-138 cells; assay: Z-138 Methylation Assay (In Cell Western for symmetric di-methyl arginine and DNA content); assay type: cell-based; conditions: Homo sapiens, read-out: ICW EC50
Description: Z-138 suspension cells were purchased from ATCC (American Type Culture Collection, Manassas, Va.). RPMI/Glutamax medium, penicillin-streptomycin, heat inactivated fetal bovine serum, and D-PBS were purchased from Life Technologies, Grand Island, N.Y., USA. Odyssey blocking buffer, 800CW goat anti-rabbit IgG (H+L) antibody, and Licor Odyssey infrared scanner were purchased from Licor Biosciences, Lincoln, Nebr., USA. Symmetric di-methyl arginine antibody was purchased from EMD Millipore, Billerica, Mass., USA. 16% Paraformaldehyde was purchased from Electron Microscopy Sciences, Hatfield, Pa., USA.
Z-138 suspension cells were maintained in growth medium (RPMI 1640 supplemented with 10% v/v heat inactivated fetal bovine serum and 100 units/mL penicillin-streptomycin) and cultured at 37° C. under 5% CO2.
Cell Treatment, in Cell Western (ICW) for Detection of Symmetric Di-Methyl Arginine and DNA Content.
Z-138 cells were seeded in assay medium at a concentration of 50,000 cells per mL to a 384-well cell culture plate with 50 μL per well. Compound (100 nL) from 384 well source plates was added directly to 384 well cell plate. Plates were incubated at 37° C., 5% CO2 for 96 hours. After four days of incubation, 40 μL of cells from incubated plates were added to poly-D-lysine coated 384 well culture plates (BD Biosciences 356697). Plates were incubated at room temperature for 30 minutes then incubated at 37° C., 5% CO2 for 5 hours. After the incubation, 40 μL per well of 8% paraformaldehyde in PBS (16% paraformaldahyde was diluted to 8% in PBS) was added to each plate and incubated for 30 minutes. Plates were transferred to a Biotek 405 plate washer and washed 5 times with 100 μL per well of wash buffer (1×PBS with 0.1% Triton X-100 (v/v)). Next 30 μL per well of Odyssey blocking buffer were added to each plate and incubated 1 hour at room temperature. Blocking buffer was removed and 20 μL per well of primary antibody was added (symmetric di-methyl arginine diluted 1:100 in Odyssey buffer with 0.1% Tween 20 (v/v)) and plates were incubated overnight (16 hours) at 4° C. Plates were washed 5 times with 100 μL per well of wash buffer. Next 20 μL per well of secondary antibody was added (1:200 800CW goat anti-rabbit IgG (H+L) antibody, 1:1000 DRAQ5 (Biostatus limited) in Odyssey buffer with 0.1% Tween 20 (v/v)) and incubated for 1 hour at room temperature. The plates were washed 5 times with 100 μL per well wash buffer then 1 time with 100 μL per well of water. Plates were allowed to dry at room temperature then imaged on the Licor Odyssey machine which measures integrated intensity at 700 nm and 800 nm wavelengths. Both 700 and 800 channels were scanned.
First, the ratio for each well was determined by:
Each plate included fourteen control wells of DMSO only treatment (minimum inhibition) as well as fourteen control wells for maximum inhibition treated with 3 μM of a reference compound (Background wells). The average of the ratio values for each control type was calculated and used to determine the percent inhibition for each test well in the plate. Reference compound was serially diluted three-fold in DMSO for a total of nine test concentrations, beginning at 3 μM. Percent inhibition was determined and IC50 curves were generated using triplicate wells per concentration of compound.

Z-138 cells = assay: Z-138 Proliferation Assay (Cell Titer Glo, 5 days); assay type: cell-based; conditions: Homo sapiens, 120 h
Description: Z-138 Proliferation Assay
Z-138 suspension cells were purchased from ATCC (American Type Culture Collection, Manassas, Va.). RPMI/Glutamax medium, penicillin-streptomycin, heat inactivated fetal bovine serum were purchased from Life Technologies, Grand Island, N.Y., USA. V-bottom polypropylene 384-well plates were purchased from Greiner Bio-One, Monroe, N.C., USA. Cell culture 384-well white opaque plates were purchased from Perkin Elmer, Waltham, Mass., USA. Cell-Titer Glo® was purchased from Promega Corporation, Madison, Wis., USA. SpectraMax M5 plate reader was purchased from Molecular Devices LLC, Sunnyvale, Calif., USA.
Z-138 suspension cells were maintained in growth medium (RPMI 1640 supplemented with 10% v/v heat inactivated fetal bovine serum and cultured at 37° C. under 5% CO2. Under assay conditions, cells were incubated in assay medium (RPMI 1640 supplemented with 10% v/v heat inactivated fetal bovine serum and 100 units/mL penicillin-streptomycin) at 37° C. under 5% CO2.
For the assessment of the effect of compounds on the proliferation of the Z-138 cell line, exponentially growing cells were plated in 384-well white opaque plates at a density of 10,000 cells/ml in a final volume of 50 μl of assay medium. A compound source plate was prepared by performing triplicate nine-point 3-fold serial dilutions in DMSO, beginning at 10 mM (final top concentration of compound in the assay was 20 μM and the DMSO was 0.2%). A 100 nL aliquot from the compound stock plate was added to its respective well in the cell plate. […] After addition of compounds, assay plates were incubated for 5 days at 37° C., 5% CO2, relative humidity >90%.
Cell viability was measured by quantitation of ATP present in the cell cultures, adding 35 μl of Cell Titer Glo® reagent to the cell plates. Luminescence was read in the SpectraMax M5 microplate reader. The concentration of compound inhibiting cell viability by 50% was determined using a 4-parametric fit of the normalized dose response curves.

PRMT5/MEP50 = biological target: T1, PRMT5/MEP50 (Homo sapiens, UniProt O14744); assay: PRMT5 Biochemical Assay (PRMT5/MEP50 enzyme assay on histone H4 peptide substrate, 3H-SAM Flashplate)
T1 construct: Flag-PRMT5; made in house; host or cells: Spodoptera frugiperda (SF9), baculovirus
Outline: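 Sf9-expressed Flag-PRMT5/6His-MEP50 preincubated with compound 30 min at 25 °C, then methylation of biotinylated H4 1-15 peptide started with ³H-SAM in 20 mM Bicine pH 7.6, 1 mM TCEP, 0.005% BSG, 0.002% Tween20.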

[2] = PRMT5 biochemical assay, read-out: Biochemical IC50

T1 sequence (O14744 with tags, fused parts or gaps): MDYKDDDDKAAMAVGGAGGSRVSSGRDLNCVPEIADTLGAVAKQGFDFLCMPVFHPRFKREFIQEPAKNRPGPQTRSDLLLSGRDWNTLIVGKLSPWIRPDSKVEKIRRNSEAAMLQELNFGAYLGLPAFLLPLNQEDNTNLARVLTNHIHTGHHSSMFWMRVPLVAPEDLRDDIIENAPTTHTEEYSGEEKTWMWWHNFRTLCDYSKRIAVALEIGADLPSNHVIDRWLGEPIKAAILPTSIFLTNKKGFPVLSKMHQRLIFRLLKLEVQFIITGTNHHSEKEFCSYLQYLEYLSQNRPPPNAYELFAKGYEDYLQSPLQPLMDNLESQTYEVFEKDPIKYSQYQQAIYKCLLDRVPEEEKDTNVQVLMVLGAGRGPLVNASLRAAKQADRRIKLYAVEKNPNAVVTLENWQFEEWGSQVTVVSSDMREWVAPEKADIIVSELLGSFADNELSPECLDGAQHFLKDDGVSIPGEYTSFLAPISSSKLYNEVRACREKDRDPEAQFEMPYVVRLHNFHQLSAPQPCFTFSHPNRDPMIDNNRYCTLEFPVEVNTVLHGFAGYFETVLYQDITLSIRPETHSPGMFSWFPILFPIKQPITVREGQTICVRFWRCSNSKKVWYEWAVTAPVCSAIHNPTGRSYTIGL
T1 sequence (Q9BQA1 with tags, fused parts or gaps partner limits assumed): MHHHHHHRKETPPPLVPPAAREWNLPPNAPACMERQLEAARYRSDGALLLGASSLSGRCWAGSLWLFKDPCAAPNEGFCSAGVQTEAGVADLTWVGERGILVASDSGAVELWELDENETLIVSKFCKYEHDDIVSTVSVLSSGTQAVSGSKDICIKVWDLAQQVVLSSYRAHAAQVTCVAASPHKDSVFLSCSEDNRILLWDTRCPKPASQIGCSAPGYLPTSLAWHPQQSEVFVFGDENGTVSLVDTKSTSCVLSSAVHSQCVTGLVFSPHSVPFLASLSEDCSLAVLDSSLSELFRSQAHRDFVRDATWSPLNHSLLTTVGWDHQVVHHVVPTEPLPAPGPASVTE

EC50 [1] | IC50 (PRMT5/MEP50; [2]) | IC50 (PRMT5/MEP50) | Compound | EC50 (Z-138 cells)
< 0.1 µM | < 0.1 µM | – | O=C(NCC(O)CN1CCc2ccccc2C1)c1ccc(OC2CCOC2)cc1 (stereo not drawn) [1-10] | 1 to 10 µM
0.101 to 1 µM | < 0.1 µM | – | CN1CCC(NC2=NN(C)CC(C(=O)NC[C@H](O)CN3CCc4ccccc4C3)C2)C1 (stereo partly drawn) [1-12] | > 5 µM
0.101 to 1 µM | 0.101 to 1 µM | – | CN(C)c1cccc2c(S(=O)(=O)NC3CC(=O)N(c4ccccc4)C3)cccc12 (stereo not drawn) [Compound 1-4] | 1 to 10 µM
– | 0.101 to 1 µM | – | CC(=O)N1CCC(Nc2cc(C(=O)NC[C@H](O)CNCc3ccccc3)ccn2)CC1 [Compound 1-8, (R)-2-((1-acetylpiperidin-4-yl)amino)-N-(3-(benzylamino)-2-hydroxypropyl)isonicotinamide] | > 5 µM
– | 0.101 to 1 µM | – | O=C(NC[C@H](O)CN1Cc2ccccc2C1)c1ccnc(NC2CCNC2)c1 (stereo partly drawn) [Compound 1-11] | > 20 µM
– | 0.101 to 1 µM | – | CCOc1c(C)cc(S(=O)(=O)NCC2CCN(Cc3ccccc3Br)CC2)cc1C [Compound 4-3] | > 20 µM
0.101 to 1 µM | 0.101 to 1 µM | – | CN(C)c1cccc2c(S(=O)(=O)NC[C@H](N)Cc3ccccc3)cccc12 [Compound 4-7] | –
– | 0.101 to 1 µM | – | CCOc1c(C)cc(S(=O)(=O)NCC2CCN(Cc3cccc4c3OCO4)CC2)cc1C [Compound 5-3] | > 20 µM
– | 0.101 to 1 µM | – | CCOc1c(C)cc(S(=O)(=O)NCC2CCN(Cc3ccc4ncccc4c3)CC2)cc1C [Compound 6-3] | > 20 µM
1 to 10 µM | 0.101 to 1 µM | – | CN(C)c1cccc2c(S(=O)(=O)NC3CC(=O)N(c4cccc(F)c4)C3)cccc12 (stereo not drawn) [Compound 6-4] | –
– | 0.101 to 1 µM | – | CCOc1c(C)cc(S(=O)(=O)NCC2CCN(Cc3ccccc3-c3ccccc3)CC2)cc1C [Compound 7-3] | > 20 µM
– | 0.101 to 1 µM | – | O=S(=O)(NCC1CCN(Cc2ccco2)CC1)c1ccc(Oc2ccccc2)cc1 [Compound 8-3] | > 20 µM
– | < 0.1 µM | – | CCOc1c(C)cc(S(=O)(=O)NCC2CCN(Cc3c(SC(C)C)nc4sccn34)CC2)cc1C [Compound 9-3] | > 20 µM
– | 0.101 to 1 µM | – | CCOc1c(C)cc(S(=O)(=O)NCC2CCN(Cc3ccc4ccccc4c3)CC2)cc1C [Compound 10-3] | > 20 µM
– | 0.101 to 1 µM | – | CCOc1c(C)cc(S(=O)(=O)NCC2CCN(Cc3c(-c4ccccc4)[nH]c4ccccc34)CC2)cc1C [Compound 11-3] | > 20 µM
10 to 50 µM | 0.101 to 1 µM | – | O=S(=O)(NCC1CCN(Cc2ccco2)CC1)c1cccc2c(Cl)cccc12 [Compound 12-3, 5-chloro-N-((1-(furan-2-ylmethyl)piperidin-4-yl)methyl)naphthalene-1-sulfonamide] | –
– | 0.101 to 1 µM | – | CN(C)c1cccc2c(S(=O)(=O)NC3CCN(Cc4ccco4)CC3)cccc12 [Compound 13-3] | > 20 µM
– | 1 to 10 µM | – | Cc1cc(NC(=O)CC2NC(N3CCN(c4ccccc4)CC3)=NC2=O)ccc1Cl (stereo not drawn) [Compound 74-14] | –
– | < 0.1 µM | – | CCCCOC(=O)c1ccc(NC(=O)NCCNC[C@H]2O[C@@H](n3cnc4c(N)ncnc43)[C@H](O)[C@@H]2O)cc1 [Compound 75-1] | –
– | 0.101 to 1 µM | – | O=C(CC1NC(N2CCN(c3ccccc3)CC2)=NC1=O)c1ccccc1Br (stereo not drawn) [Compound 75-14] | –

EC50 [1] | IC50 (PRMT5/MEP50; [2]) | IC50 (PRMT5/MEP50) | Compound | EC50 (Z-138 cells)
– | 0.101 to 1 µM | – | CC(=O)N(CCNCCc1ccc(Cl)cc1)C[C@H]1O[C@@H](n2cnc3c(N)ncnc32)[C@H](O)[C@@H]1O [Compound 76-1] | –
– | 0.101 to 1 µM | – | CC(C)N(CCNCCc1ccc(Cl)cc1)C[C@H]1O[C@@H](n2cnc3c(N)ncnc32)[C@H](O)[C@@H]1O [Compound 77-1] | –
– | < 0.1 µM | – | Nc1ncnc2c1ncn2[C@@H]1O[C@H](CN(CCCC(=O)OCc2ccccc2)CCNCCc2ccc(Cl)cc2)[C@@H](O)[C@H]1O [Compound 78-1] | –
– | 0.101 to 1 µM | – | CN(CCNCCc1ccccc1)C[C@H]1O[C@@H](n2cnc3c(N)ncnc32)[C@H](O)[C@@H]1O [Compound 79-1] | –
– | < 0.1 µM | – | Nc1ncnc2c1ncn2[C@@H]1O[C@H](CN(CCCC(=O)O)CCNCCc2ccc(Cl)cc2)[C@@H](O)[C@H]1O [Compound 80-1] | –
– | < 0.1 µM | – | Nc1ncnc2c1ncn2[C@@H]1O[C@H](CN(CCNCCc2ccc(Cl)cc2)Cc2ccccc2)[C@@H](O)[C@H]1O [Compound 81-1] | –
– | 0.101 to 1 µM | – | CCN(CCNCCc1ccc(Cl)cc1)C[C@H]1O[C@@H](n2cnc3c(N)ncnc32)[C@H](O)[C@@H]1O [Compound 82-1] | –
– | 0.101 to 1 µM | – | N=C(NC[C@H]1O[C@@H](n2cnc3c(N)ncnc32)[C@H](O)[C@@H]1O)c1ccccc1 [Compound 83-1] | –
– | 0.101 to 1 µM | – | Nc1ncnc2c1ncn2[C@@H]1O[C@H](CN2CCCN(c3ccccn3)CC2)[C@@H](O)[C@H]1O [Compound 84-1] | –
– | 0.101 to 1 µM | – | CN1CCC(N(C)C[C@H]2O[C@@H](n3cnc4c(N)ncnc43)[C@H](O)[C@@H]2O)C1 (stereo partly drawn) [Compound 85-1] | –
– | 0.101 to 1 µM | – | CN1CC[C@@H](N(C)C[C@H]2O[C@@H](n3cnc4c(N)ncnc43)[C@H](O)[C@@H]2O)C1 [Compound 86-1] | –
– | 0.101 to 1 µM | – | Nc1ncnc2c1ncn2[C@@H]1O[C@H](CSC[C@H](N)C(=O)O)[C@@H](O)[C@H]1O [Compound 88-1] | –
– | – | < 0.1 µM | NCCCSC[C@H]1O[C@@H](n2cnc3c(N)ncnc32)[C@H](O)[C@@H]1O [Compound 89-1] | –
– | < 0.1 µM | – | Nc1ncnc2c1ncn2[C@@H]1O[C@H](CSCCC(N)CO)[C@@H](O)[C@H]1O (stereo partly drawn) [Compound 90-1] | –
– | < 0.1 µM | – | Nc1ncnc2c1ncn2[C@@H]1O[C@H](CSCC[C@H](N)CO)[C@@H](O)[C@H]1O [Compound 91-1, (2S, 3S, 4R, 5R)-2-((((S)-3-amino-4-hydroxybutyl)thio)methyl)-5-(6-amino-9H-purin-9-yl)tetrahydrofuran-3,4-diol] | –
– | 0.101 to 1 µM | – | O=C1c2ccccc2C(=O)N1CCCSC[C@H]1C[C@@H](n2ccc3cncnc32)[C@H](O)[C@@H]1O [Compound 93-1] | –
– | 0.101 to 1 µM | – | CCSC[C@H]1O[C@@H](n2cnc3c(N)ncnc32)[C@H](O)[C@@H]1O [Compound 94-1] | –
– | 0.101 to 1 µM | – | Nc1ncnc2c1ncn2[C@@H]1O[C@H](CSCCCC(=O)O)[C@@H](O)[C@H]1O [Compound 95-1] | –
– | 0.101 to 1 µM | – | CSC[C@H]1O[C@@H](n2cnc3c(N)ncnc32)[C@H](O)[C@@H]1O [Compound 96-1] | –
– | < 0.1 µM | – | CN(CCCN)C[C@H]1O[C@@H](n2cnc3c(N)ncnc32)[C@H](O)[C@@H]1O [Compound 97-1] | –
